Data from patent US9963445B2, “Chemical compounds” (SYNGENTA PARTICIPATIONS AG, priority 2013, dated 2018).

Legend:
Type in all cases: in vivo
zea mays [1] = assay: Pre-emergence herbicidal activity, glasshouse pot test; details: pre-emergence spray, rate 1000 g/ha, evaluated after 13 days, scale 0-5
Outline: (§1)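 Seeds sown in standard soil were sprayed one day after sowing, before emergence, with compound formulated in acetone/water (50:50) plus 0.5% Tween 20. Plants were grown at 24/16 °C day/night, 14 h light, 65% humidity, watered twice daily, and damage was scored after 13 days (0 = none, 5 = total).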

Alopecurus myosuroides [2] = assay: as above; details: pre-emergence spray, rate 1000 g/ha, evaluated after 13 days, scale 0-5
Outline: as §1

Echinochloa crus-galli [3] = assay: as above; details: pre-emergence spray, rate 1000 g/ha, evaluated after 13 days, scale 0-5
Outline: as §1

Abutilon theophrasti [4] = assay: as above; details: pre-emergence spray, rate 1000 g/ha, evaluated after 13 days, scale 0-5
Outline: as §1

Setaria faberi [5] = assay: as above; details: pre-emergence spray, rate 1000 g/ha, evaluated after 13 days, scale 0-5
Outline: as §1

Amaranthus retroflexus [6] = assay: as above; details: pre-emergence spray, rate 1000 g/ha, evaluated after 13 days, scale 0-5
Outline: as §1

zea mays [7] = assay: Post-emergence herbicidal activity, glasshouse pot test; design: key: 0 = no damage to plant, 5 = total damage to plant; details: Application post-emergence, rate 1000 g/ha, evaluated after 13 days
Outline: (§2)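 Seeds sown in standard soil in pots, grown 8 days in glasshouse (24/16 °C day/night, 14 h light, 65% humidity), then sprayed with aqueous solution from active ingredient formulated in acetone/water (50:50) with 0.5% Tween 20. Plants regrown under same conditions, watered twice daily; damage scored after 13 days (0 none–5 total).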

Alopecurus myosuroides [8] = assay: as above; design: key: 0 = no damage to plant, 5 = total damage to plant; details: Application post-emergence, rate 1000 g/ha, evaluated after 13 days
Outline: as §2

Echinochloa crus-galli [9] = assay: as above; design: key: 0 = no damage to plant, 5 = total damage to plant; details: Application post-emergence, rate 1000 g/ha, evaluated after 13 days
Outline: as §2

Abutilon theophrasti [10] = assay: as above; design: key: 0 = no damage to plant, 5 = total damage to plant; details: Application post-emergence, rate 1000 g/ha, evaluated after 13 days
Outline: as §2

Setaria faberi [11] = assay: as above; design: key: 0 = no damage to plant, 5 = total damage to plant; details: Application post-emergence, rate 1000 g/ha, evaluated after 13 days
Outline: as §2

Amaranthus retroflexus [12] = assay: as above; design: key: 0 = no damage to plant, 5 = total damage to plant; details: Application post-emergence, rate 1000 g/ha, evaluated after 13 days
Outline: as §2

Compound	ZEAMX damage score, application pre-emergence (zea mays [1])	ALOMY damage score, application pre-emergence (Alopecurus myosuroides [2])	ECHCG damage score, application pre-emergence (Echinochloa crus-galli [3])	ABUTH damage score, application pre-emergence (Abutilon theophrasti [4])	SETFA damage score, application pre-emergence (Setaria faberi [5])	AMARE damage score, application pre-emergence (Amaranthus retroflexus [6])	ZEAMX herbicidal damage score (zea mays [7])	ALOMY herbicidal damage score (Alopecurus myosuroides [8])	ECHCG herbicidal damage score (Echinochloa crus-galli [9])	ABUTH herbicidal damage score (Abutilon theophrasti [10])	SETFA herbicidal damage score (Setaria faberi [11])	AMARE herbicidal damage score (Amaranthus retroflexus [12])
C/C=C/c1cc(N2C(=O)C(Cl)=C(C)C2O)ncn1 (stereo not drawn) [CF6]	0	2	3	0	2	2	0	3	4	4	4	2
CC1=C(Cl)C(=O)N(c2ccc([S+](C)[O-])cn2)C1O (stereo not drawn) [AF53]	1	2	1	0	0	1	0	3	3	3	3	1
CC1=C(Cl)C(=O)N(c2cc(C(C)(C)C#N)ncn2)C1O (stereo not drawn) [CF14]	2	3	5	5	5	5	5	5	5	5	5	5
4-chloro-2-hydroxy-1-[5-iodo-4-(trifluoromethyl)-2-pyridyl]-3-methyl-2H-pyrrol-5-one [AF76]	1	3	4	4	5	5	1	5	5	5	5	5
COC1=C(C)C(O)N(c2cc(C(C)(C)F)c(C#N)nn2)C1=O (stereo not drawn) [BI15]	2	4	5	5	5	5	2	4	5	5	5	5
4-chloro-2-hydroxy-3-methyl-1-[4-(trifluoromethyl)-5-vinyl-2-pyridyl]-2H-pyrrol-5-one [AF18]	2	4	5	5	4	5	2	5	5	5	5	5
COC1=C(C)C(O)N(c2ccc(NC(=O)C(C)(C)C)cn2)C1=O (stereo not drawn) [AI26]	2	4	5	5	5	5	5	5	5	5	5	5
COC1=C(C)C(O)N(c2cc(C(F)(F)Cl)ccn2)C1=O (stereo not drawn) [AI16]	2	3	5	1	5	5	3	4	5	5	5	5
CC1=C(Cl)C(=O)N(c2cc(C(C)(C)C)ncn2)C1O (stereo not drawn) [CF2]	3	4	4	5	4	5	5	5	5	5	5	5
COC1=C(C)C(O)N(c2cc(C(C)(C)C)c(Cl)nn2)C1=O (stereo not drawn) [BI1]	4	4	5	4	5	3	4	5	5	5	5	5
COC1=C(C)C(O)N(c2cc(C(C)(C)C)ccn2)C1=O (stereo not drawn) [AI4]	1	3	4	4	5	5	3	5	5	5	5	5
COC1=C(OC)C(O)N(c2cc(C(F)(F)F)ccn2)C1=O (stereo not drawn) [AK8]	2	3	4	5	3	5	3	4	5	5	5	5
